Data on two molecules can be found in US10036033B2, “Method of inhibiting sprouting in plant tissues” (Academia Sinica, priority 2014, dated 2018).

Assay [1] relates to ABA induced gene expression (ABRC1-GUS) in barley aleurone cells. Nature of the assay: Transient expression assay, ABRC1-GUS reporter, barley aleurone cells. To be noted: 20 μM ABA, 24 h. It counts as cell-based, barley (Hordeum vulgare). The text has this:
FIG. 2. FCA alters ABA but not GA pathway in barley aleurone cells. (A) Schemes of the reporter and effector constructs used in transient expression assays. (B) FCA-overexpression enhances and (D) FCA-RNAi suppresses ABA induced gene expression in barley aleurone cells. (C and E) GA induced gene expression is not affected. The reporter construct ABRC1-GUS or Amy32b-GUS was cobombarded into barley embryoless half-seeds with (+) or without (−) effector constructs Ubi-HvFCA-RNAi or Ubi-HvFCA. Bars indicate GUS activities ±SE after 24 h of incubation of bombarded embryoless half-seeds in shooting buffer with or without 20 μM ABA or 1 μM GA.
FIG. 9. FCA-overexpression enhances ABA induced gene expression in barley aleurone cells. (A) Schemes of the reporter and effector constructs used in transient expression assays. (B) The reporter construct ABRC1-GUS was cobombarded into barley embryoless half-seeds with (+) or without (−) effector constructs Ubi-HvFCA or Ubi-OsFCA. Bars indicate GUS activities ±SE after 24 h of incubation of bombarded embryoless half-seeds in shooting buffer with (+) or without (−) 10 μM ABA.
Rice (Oryza sativa) cultivar Tainung 67 was used in this study. Rice seedlings were grown in Kimura B nutrient solution at 28° C., 16L/8D photoperiod. Barley seeds (Hordeum vulgare L. cv. Himalaya) were used in all the transient assays. […]

Assay [2] has as its system ABA induced gene expression (ABRC1-GUS) in rice aleurone cells. Kind of assay: ABRC1-GUS reporter expression assay in transgenic rice embryoless half-seeds (aleurone cells). It counts as cell-based, rice (Oryza sativa). Particulars: wild type rice aleurone cells; 20 μM ABA, 24 h. As to the method: FIG. 1. FCA-overexpression enhances and FCA-RNAi suppresses ABA induced gene expression in rice aleurone cells. The reporter construct (A) ABRC1-GUS was bombarded into (B) FCA-overexpression and (C) FCA-RNAi transgenic rice embryoless half-seeds. Bars indicate GUS activities ±SE after 24 h of incubation of bombarded seeds in shooting buffer with or without 20 μM ABA.
Rice (Oryza sativa) cultivar Tainung 67 was used in this study. Rice seedlings were grown in Kimura B nutrient solution at 28° C., 16L/8D photoperiod. Barley seeds (Hordeum vulgare L. cv. Himalaya) were used in all the transient assays. Embryoless half-seeds were prepared as described (Gomez-Cadenas et al., 2001).
Rice FCA cDNA clones (GenBank Accession Numbers AK073225 and AK058419) were supplied by Rice Genome Resource Center (RGRC) of National Institute of Agricultural Sciences (NIAS). Coding region of rice FCA was amplified from FCA cDNA clone by PCR. Coding region of barley FCA was amplified from total RNA of barley seed by RT-PCR. For underexpression of FCA, nucleotide number 307-822 of rice FCA ORF and nucleotide number 1532-1945 of barley FCA ORF were amplified. All PCR products were T/A cloned into pCR8/GW/TOPO vector (Invitrogen). Sequences and orientations of inserts in vector were confirmed by sequencing. […]

The next assay has as its system ABI5. Nature of the assay: In planta two-hybrid study. It counts as binding.
For a further assay, the target named is T1, VP1 (Zea mays, UniProt P26307).
T1 sequence (P26307 1-691): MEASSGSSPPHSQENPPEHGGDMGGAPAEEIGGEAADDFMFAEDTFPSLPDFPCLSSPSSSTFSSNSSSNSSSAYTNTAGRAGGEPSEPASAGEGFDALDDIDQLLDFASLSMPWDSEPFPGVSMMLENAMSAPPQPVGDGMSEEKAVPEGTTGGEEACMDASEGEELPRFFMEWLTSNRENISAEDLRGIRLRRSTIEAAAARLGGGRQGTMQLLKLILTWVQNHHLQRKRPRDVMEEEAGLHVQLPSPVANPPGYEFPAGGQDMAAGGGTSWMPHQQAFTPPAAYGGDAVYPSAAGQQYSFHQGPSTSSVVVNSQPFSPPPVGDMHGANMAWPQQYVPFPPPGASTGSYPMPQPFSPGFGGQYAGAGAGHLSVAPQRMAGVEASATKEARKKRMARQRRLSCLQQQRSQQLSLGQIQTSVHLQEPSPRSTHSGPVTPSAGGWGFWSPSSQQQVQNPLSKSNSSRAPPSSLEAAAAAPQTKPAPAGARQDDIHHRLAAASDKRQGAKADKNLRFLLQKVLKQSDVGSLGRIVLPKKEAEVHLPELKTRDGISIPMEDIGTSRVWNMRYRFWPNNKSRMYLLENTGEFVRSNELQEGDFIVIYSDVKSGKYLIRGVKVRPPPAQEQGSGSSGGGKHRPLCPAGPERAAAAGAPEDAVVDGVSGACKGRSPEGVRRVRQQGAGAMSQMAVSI
Kind of assay: In planta two-hybrid study. It counts as binding.

`CC1=CC(=O)CC(C)(C)C1(O)/C=C/C(C)=C\C(=O)O` (stereo not shown) [ABA]: the “ABRC1-GUS reporter induction by ABA treatment” value in assay [1] and in assay [2] was “highly induced” each time.

B1: OsFCA: Rice FCA protein, nuclear RNA-binding protein, SEQ ID NO: 1 (protein, listed as Oryza sativa)
chain: MHRGGDRSTDPSSGPAPGSRGGGDGRFGRGPSRWSSGGGGGGSGSPPHRFSRGGGGGGGDGGGGGGGGGRFHPYRGPSDHSGGGGYRSGGGGEYGEPGSGPRHRYGSGRGDHSDHDNRNNYVKLFIGSVPRTATEDDVRPLFEEHGDVVEVALIKDRKTGEQQGCCFVKYATSEEAERAIRALHNQYTLPGAMGPIQVRYADGERERHGAIEHKLFVASLNKQATAKEIEEIFAPYGHVEDVYIMKDGMRQSRGCGFVKFSSREPALAAMSALSGNYVMRGCEQPLIIRFADPKRPRPGGSRGGPAFGGPGFSPRSDAALVIRPTANLDEPRGRHMPPDSWHPSSPRSAPHQFNNFGSDNPMAPKGSTVTSTTDTATFRPQMFSGNGSLSSQTAVPSSSHMGMNPPPMAQGHHLGGQQIPPLQKLPGLPQNFPVQLQNNQLGQPLQGPAQQIGQLQVPQSMGPGSFGQNRLSGQLPVSQPLMQQNASVSAVQVPSAVSNSMQAIPGQQHLPSNVAPQMLQQPVQQMPSQAPQLLLQQQAALQSSYQSSQQAIYQLQQQLQLMQQQQQSNLNHQQPTQGQPVQSSNPGAPNAIIPSNINTIPQQATSPAVPLTCNWTEHTSPEGFKYYYNSITRESKWDKPEEYVLYEQQQQQQQQQKLLLLQQHKQKLAMQQLQSPPQAQTHPAMQPVQQIPQAQQGQQQMQMKQQELNYTQLQTPGAIDPSRIQQGIQSAQERAWKS
As to B1, the “Interaction with ABI5” value in the assay with ABI5 is “not with ABI5 directly”. In addition, the “Interaction with VP1” value in the assay with VP1 is listed as “interacts with VP1”.
